Laboratory results taken from patent publication US7531195B2, “Schisandrin B preparation” (priority 2005, dated 2009).

Test system: mitochondria of brain, heart, liver and skeletal muscle
Assay: Ca2+-induced mitochondrial permeability transition (MPT) in tissues of young adult and middle-aged rats
Type: in vivo, rat
Method: Young adult (8-10 week-old) and middle-aged (12-14 month-old retired breeder) female Sprague-Dawley rats were maintained under a 12-h dark/light cycle at about 22° C. and allowed food and water ad libitum. Experimental protocols were approved by the Research Practice Committee at the Hong Kong University of Science & Technology, Hong Kong. Animals were randomly divided into groups, with 5 animals in each. In the treatment groups, rats were intragastrically administered with Sch B (dissolved/suspended in olive oil) at a daily dose of 10 mg/kg for 15 days. The daily dose is approximated to 1.14 mg/kg for humans after adjusting the inter-species difference in drug distribution in the body. Untreated control animals received olive oil only. Twenty-four hours after the last dosing, animals were sacrificed by decapitation and the whole brain, heart ventricular, liver and skeletal muscle (hind limb) tissues were excised and subjected to biochemical analysis. […]
Tissue homogenates were prepared as described above. […] An aliquot (1.6 ml) of mitochondrial sample (0.5 mg protein/ml) was prepared by mixing mitochondrial fraction with incubation buffer (125 mM sucrose, 65 mM KCl, 10 mM Hepes, pH 7.2, 5 mM succinate (freshly prepared) and 5 μM rotenone (freshly prepared). Aliquots (200 μl) of mitochondrial sample were mixed with 10 μl of cyclosporin A (5 μM in 0.5% ethanol final concentration) or incubation buffer. The mixtures were incubated at 30° C. for 5 min. An aliquot (10 μl) of calcium chloride solution (1 μM final concentration) was then added, and the mixtures were incubated at 30° C. for 5 min. Aliquots (180 μl) of the mixtures were added into 96-well micro-titer plate, and the initial absorbance of the mixtures at 520 nm was monitored for 5 min at 30° C. The swelling reaction was then started by adding 20 μl of K3PO4 (0.5 mM, pH 7.2), and the absorbance at 520 nm of the reaction mixtures was read every 2 min for 30 min at 30° C., using Victor V^2 Multi-Label Counter. […]

Compound: COc1cc2c(c(OC)c1OC)-c1c(cc3c(c1OC)OCO3)CC(C)C(C)C2 (single isomer, unassigned; (-)) [(−) Sch B, (−) Schisandrin B]
- extent of inhibition of sensitivity to Ca2+-induced MPT (middle-aged rats, all tissues except liver, range among tissues): 15-29%
- sensitivity to Ca2+-induced MPT in liver (middle-aged rats, liver): did not show detectable change
- decrease of sensitivity to Ca2+-induced MPT (young adult rat tissues, 10 mg/kg/day x 15, range among tissues): 15-48%
